Assay results: paper PMC5484120 (Marine Drugs, 2017)
“And” between values parts separate entries of the source, which are not always exact repeats. Identical values can stand only once.

Molecular target: T1, hα9α10 nAChR (Homo sapiens, UniProt Q9GZZ6+Q9UGM1)
T1 construct: expressed in transfected cells; host or cells: Xenopus laevis oocytes injected with cRNA
Assay: cell-based
Type: cell-based

T1 sequence (Q9UGM1 26-479 limits assumed): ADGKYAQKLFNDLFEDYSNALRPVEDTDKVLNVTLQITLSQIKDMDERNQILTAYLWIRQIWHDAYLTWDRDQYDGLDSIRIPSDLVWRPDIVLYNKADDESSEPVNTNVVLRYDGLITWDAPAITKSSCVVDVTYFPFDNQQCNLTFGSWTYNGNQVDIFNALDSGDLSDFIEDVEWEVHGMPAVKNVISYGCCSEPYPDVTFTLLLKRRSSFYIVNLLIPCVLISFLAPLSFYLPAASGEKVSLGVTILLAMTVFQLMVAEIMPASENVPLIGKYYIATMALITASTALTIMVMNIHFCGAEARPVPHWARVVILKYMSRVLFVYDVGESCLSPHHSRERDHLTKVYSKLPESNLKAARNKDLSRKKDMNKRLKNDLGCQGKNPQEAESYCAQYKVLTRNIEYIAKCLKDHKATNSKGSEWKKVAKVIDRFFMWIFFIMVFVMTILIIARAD
T1 sequence (Q9GZZ6 25-450): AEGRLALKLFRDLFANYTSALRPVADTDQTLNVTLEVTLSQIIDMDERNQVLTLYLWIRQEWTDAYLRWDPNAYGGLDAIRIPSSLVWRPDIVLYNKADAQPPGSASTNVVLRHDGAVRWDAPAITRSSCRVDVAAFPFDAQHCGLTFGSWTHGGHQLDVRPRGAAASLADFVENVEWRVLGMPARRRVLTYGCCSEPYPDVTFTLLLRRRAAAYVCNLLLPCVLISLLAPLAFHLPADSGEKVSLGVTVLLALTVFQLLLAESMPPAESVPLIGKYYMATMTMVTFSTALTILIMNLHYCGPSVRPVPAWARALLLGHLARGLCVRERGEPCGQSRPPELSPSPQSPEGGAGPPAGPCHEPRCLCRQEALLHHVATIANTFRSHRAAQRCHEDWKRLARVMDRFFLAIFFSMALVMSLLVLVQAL

## CSCC[C@H](NC(=O)[C@H](CC(C)C)NC(=O)[C@H](C)N)C(=O)N[C@@H](CO)C(=O)N[C@H](C(=O)NCC(=O)N[C@H](C(=O)N[C@@H](CC(N)=O)C(=O)N[C@@H](Cc1ccc(O)cc1)C(=O)N[C@@H](CCCNC(=N)N)C(=O)N[C@@H](CC(C)C)C(=O)N[C@@H](CC(C)C)C(=O)N[C@@H](CCCCN)C(=O)N[C@H](C(=O)N[C@@H](CSCC(N)=O)C(=O)N[C@@H](CCCNC(=N)N)C(=O)NCC(=O)N[C@@H](CO)C(=O)NCC(=O)N[C@@H](CCCNC(=N)N)C(=O)N[C@@H](Cc1ccc(O)cc1)C(=O)N[C@@H](CSCC(N)=O)C(=O)N[C@@H](CCCNC(=N)N)C(=O)N[C@@H](CO)C(=O)N1CCC[C@H]1C(=O)N[C@@H](Cc1ccc(O)cc1)C(=O)O)[C@@H](C)O)[C@@H](C)O)[C@@H](C)O [GeXXVIIA-L-Nter]
  IC50: 222 ± 14 nM
  inhibition of ACh-evoked current, hα9α10 nAChR: > 90% and ~ 55%
